Test results: ChEMBL document CHEMBL5380817, “Discovery of LL-K8-22: A Selective, Durable, and Small-Molecule Degrader of the CDK8-Cyclin C Complex” (J Med Chem, 2023)
Active and inactive are the calls of the source. The calls are words filed in the database; no cut-off is given here.

How the values were obtained:
[1] = target: T1, CDK8/Cyclin C (Homo sapiens) (UniProt P49336+P24863); experiment: Hydrophobic-tagging degradation activity at CDK8/Cyclin C (unknown origin) assessed as protein degradation at 0.625 to 10 uM incubated for 48 hrs by Western blotting analysis; format: protein-complex assay; settings: dose 0.625-10 µM
[2] = target: T1, CDK8/Cyclin C (Homo sapiens); experiment: Hydrophobic-tagging degradation activity at CDK8/Cyclin C in human HCT-116 cells assessed as protein degradation at 0.75 to 20 uM incubated for 48 hrs by Western blotting analysis; format: cell-based; settings: dose 0.75-20 µM
[3] = target: T1, CDK8/Cyclin C (Homo sapiens); experiment: Hydrophobic-tagging degradation activity at CDK8/Cyclin C in human MDA-MB-231 cells assessed as protein degradation at 1.5 to 30 uM incubated for 48 hrs by Western blotting analysis; format: cell-based; settings: dose 1.5-30 µM
[4] = target: Cyclin-dependent kinase 2 (Homo sapiens) (UniProt P24941); experiment: PROTAC activity at CDK2 in human MDA-MB-468 cells assessed as degradation of CDK2 at 0.625 to 10 uM incubated for 24 hrs by Western blotting analysis; format: cell-based; settings: dose 0.625-10 µM
[5] = target: Cyclin-dependent kinase 5 (Homo sapiens) (UniProt Q00535); experiment: PROTAC activity at CDK5 in human MDA-MB-468 cells assessed as degradation of CDK5 at 0.625 to 10 uM incubated for 24 hrs by Western blotting analysis; format: cell-based; settings: dose 0.625-10 µM
Sequence of Cyclin-dependent kinase 5 (Homo sapiens) (Q00535 whole entry, looked up): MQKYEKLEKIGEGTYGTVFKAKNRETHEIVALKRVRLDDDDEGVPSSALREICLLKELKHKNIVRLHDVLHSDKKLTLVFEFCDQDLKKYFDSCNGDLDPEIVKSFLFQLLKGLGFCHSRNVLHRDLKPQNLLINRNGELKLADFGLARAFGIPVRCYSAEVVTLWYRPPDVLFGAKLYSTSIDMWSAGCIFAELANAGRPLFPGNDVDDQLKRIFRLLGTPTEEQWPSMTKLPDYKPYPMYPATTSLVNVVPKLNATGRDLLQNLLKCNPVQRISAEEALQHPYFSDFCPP

[6] = target: Cyclin-dependent kinase 9 (Homo sapiens) (UniProt P50750); experiment: Hydrophobic-tagging degradation activity at CDK9 in human MDA-MB-468 cells assessed as degradation of CDK9 at 0.625 to 10 uM incubated for 24 hrs by Western blotting analysis; format: cell-based; settings: dose 0.625-10 µM
Sequence of Cyclin-dependent kinase 9 (Homo sapiens) (P50750 whole entry): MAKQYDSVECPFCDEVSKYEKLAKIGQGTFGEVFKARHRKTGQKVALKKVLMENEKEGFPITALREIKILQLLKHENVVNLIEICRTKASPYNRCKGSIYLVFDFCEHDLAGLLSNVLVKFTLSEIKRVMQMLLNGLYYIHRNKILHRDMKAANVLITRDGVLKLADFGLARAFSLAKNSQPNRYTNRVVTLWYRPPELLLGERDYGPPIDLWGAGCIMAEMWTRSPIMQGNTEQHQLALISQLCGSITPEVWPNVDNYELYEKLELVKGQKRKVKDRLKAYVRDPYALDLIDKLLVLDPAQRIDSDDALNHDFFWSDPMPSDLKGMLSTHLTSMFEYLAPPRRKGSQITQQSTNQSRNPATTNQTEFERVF

[7] = target: Cyclin-dependent kinase 1 (Homo sapiens) (UniProt P06493); experiment: Hydrophobic-tagging degradation activity at CDK1 in human MDA-MB-468 cells assessed as degradation of CDK1 at 10 uM incubated for 24 hrs by Western blotting analysis; format: cell-based
Sequence of Cyclin-dependent kinase 1 (Homo sapiens) (P06493 whole entry, looked up): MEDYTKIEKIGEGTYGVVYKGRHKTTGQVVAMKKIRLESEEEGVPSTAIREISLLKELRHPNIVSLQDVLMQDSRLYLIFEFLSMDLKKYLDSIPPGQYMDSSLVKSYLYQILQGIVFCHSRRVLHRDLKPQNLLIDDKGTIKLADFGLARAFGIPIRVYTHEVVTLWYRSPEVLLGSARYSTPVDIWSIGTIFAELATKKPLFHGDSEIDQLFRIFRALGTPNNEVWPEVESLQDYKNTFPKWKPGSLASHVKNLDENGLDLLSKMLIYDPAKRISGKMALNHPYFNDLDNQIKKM

[8] = target: Cyclin-A2 (Homo sapiens) (UniProt P20248); experiment: PROTAC activity at Cyclin A2 in human MDA-MB-468 cells assessed as degradation of Cyclin A2 at 0.625 to 10 uM incubated for 24 hrs by Western blotting analysis; format: cell-based; settings: dose 0.625-10 µM
Sequence of Cyclin-A2 (Homo sapiens) (P20248 whole entry): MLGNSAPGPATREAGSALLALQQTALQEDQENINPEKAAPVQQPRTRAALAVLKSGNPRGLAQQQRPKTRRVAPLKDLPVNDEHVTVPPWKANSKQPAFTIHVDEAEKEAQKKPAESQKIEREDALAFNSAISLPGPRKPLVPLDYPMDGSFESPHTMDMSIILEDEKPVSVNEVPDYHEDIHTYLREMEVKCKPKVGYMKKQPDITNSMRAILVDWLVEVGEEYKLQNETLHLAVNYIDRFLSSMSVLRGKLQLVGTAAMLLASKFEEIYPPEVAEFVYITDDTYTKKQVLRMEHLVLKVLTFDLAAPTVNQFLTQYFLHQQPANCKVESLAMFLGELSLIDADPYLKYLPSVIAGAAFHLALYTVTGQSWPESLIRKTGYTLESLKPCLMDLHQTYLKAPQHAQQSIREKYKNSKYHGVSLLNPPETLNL

[9] = target: G1/S-specific cyclin-E1 (Homo sapiens) (UniProt P24864); experiment: PROTAC activity at Cyclin E1 in human MDA-MB-468 cells assessed as degradation of Cyclin E1 at 0.625 to 10 uM incubated for 24 hrs by Western blotting analysis; format: cell-based; settings: dose 0.625-10 µM
Sequence of G1/S-specific cyclin-E1 (Homo sapiens) (P24864 whole entry): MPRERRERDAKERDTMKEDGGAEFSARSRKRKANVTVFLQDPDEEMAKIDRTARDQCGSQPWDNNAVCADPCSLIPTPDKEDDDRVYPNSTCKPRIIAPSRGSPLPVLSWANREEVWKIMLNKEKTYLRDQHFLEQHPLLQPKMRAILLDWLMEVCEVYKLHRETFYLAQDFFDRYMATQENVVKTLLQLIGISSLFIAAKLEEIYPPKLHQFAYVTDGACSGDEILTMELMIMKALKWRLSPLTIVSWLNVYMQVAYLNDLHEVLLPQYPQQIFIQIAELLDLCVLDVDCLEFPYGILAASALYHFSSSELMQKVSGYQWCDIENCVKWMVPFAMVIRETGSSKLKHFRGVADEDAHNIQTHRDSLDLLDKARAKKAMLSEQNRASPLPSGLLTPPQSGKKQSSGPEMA

[10] = target: Cyclin-H (Homo sapiens) (UniProt P51946); experiment: PROTAC activity at Cyclin H in human MDA-MB-468 cells assessed as degradation of Cyclin H at 0.625 to 10 uM incubated for 24 hrs by Western blotting analysis; format: cell-based; settings: dose 0.625-10 µM
Sequence of Cyclin-H (Homo sapiens) (P51946 whole entry): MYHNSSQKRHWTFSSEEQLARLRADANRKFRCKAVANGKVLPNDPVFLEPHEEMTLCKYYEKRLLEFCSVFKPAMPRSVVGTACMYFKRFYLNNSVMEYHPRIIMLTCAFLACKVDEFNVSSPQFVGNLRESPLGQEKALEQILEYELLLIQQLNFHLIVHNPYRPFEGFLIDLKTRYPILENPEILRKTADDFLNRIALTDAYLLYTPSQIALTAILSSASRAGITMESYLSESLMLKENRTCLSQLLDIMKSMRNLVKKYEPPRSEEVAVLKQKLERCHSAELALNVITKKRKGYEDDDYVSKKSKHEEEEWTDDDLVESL

[11] = target: Cyclin-T1 (Homo sapiens) (UniProt O60563); experiment: PROTAC activity at Cyclin T1 in human MDA-MB-468 cells assessed as degradation of Cyclin T1 at 0.625 to 10 uM incubated for 24 hrs by Western blotting analysis; format: cell-based; settings: dose 0.625-10 µM
Sequence of Cyclin-T1 (Homo sapiens) (O60563 whole entry): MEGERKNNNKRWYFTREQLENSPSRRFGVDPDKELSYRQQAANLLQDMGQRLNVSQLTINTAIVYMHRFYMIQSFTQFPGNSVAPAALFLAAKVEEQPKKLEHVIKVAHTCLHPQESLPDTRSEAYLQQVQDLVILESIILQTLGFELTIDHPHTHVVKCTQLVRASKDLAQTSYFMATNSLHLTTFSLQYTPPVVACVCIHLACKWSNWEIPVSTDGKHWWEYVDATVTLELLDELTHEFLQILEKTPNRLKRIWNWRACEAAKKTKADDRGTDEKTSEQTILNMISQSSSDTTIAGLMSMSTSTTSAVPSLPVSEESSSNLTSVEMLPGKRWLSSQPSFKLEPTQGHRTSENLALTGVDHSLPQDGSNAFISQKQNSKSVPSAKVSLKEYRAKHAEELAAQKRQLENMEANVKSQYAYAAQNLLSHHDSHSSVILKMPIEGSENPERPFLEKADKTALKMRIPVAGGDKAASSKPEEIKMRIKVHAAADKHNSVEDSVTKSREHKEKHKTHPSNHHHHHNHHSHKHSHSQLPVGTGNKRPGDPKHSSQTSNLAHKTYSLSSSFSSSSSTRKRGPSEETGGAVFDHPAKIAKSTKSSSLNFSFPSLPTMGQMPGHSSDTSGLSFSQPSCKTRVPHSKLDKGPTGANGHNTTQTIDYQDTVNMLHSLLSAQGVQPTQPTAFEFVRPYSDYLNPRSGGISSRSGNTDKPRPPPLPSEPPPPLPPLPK

[12] = target: Cyclin-C (Homo sapiens) (UniProt P24863); experiment: PROTAC activity at Cyclin C in human MDA-MB-468 cells assessed as degradation of Cyclin C at 0.625 to 10 uM incubated for 24 hrs by Western blotting analysis; format: cell-based; settings: dose 0.625-10 µM
Sequence of Cyclin-C (Homo sapiens) (P24863 whole entry): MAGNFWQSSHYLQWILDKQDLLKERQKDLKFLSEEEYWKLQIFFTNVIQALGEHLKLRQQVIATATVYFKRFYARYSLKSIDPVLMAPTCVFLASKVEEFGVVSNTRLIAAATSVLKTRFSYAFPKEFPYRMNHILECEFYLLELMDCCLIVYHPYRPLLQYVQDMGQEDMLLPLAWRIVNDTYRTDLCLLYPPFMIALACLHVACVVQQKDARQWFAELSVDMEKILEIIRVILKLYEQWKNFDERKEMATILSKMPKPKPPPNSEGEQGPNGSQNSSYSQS

[13] = target: Cyclin-dependent kinase 19 (Homo sapiens) (UniProt Q9BWU1); experiment: Hydrophobic-tagging degradation activity at CDK19 in human MDA-MB-468 cells assessed as degradation of CDK19 protein at 5 uM incubated for 12 hrs by DIA-based proteomic analysis; format: cell-based
Sequence of Cyclin-dependent kinase 19 (Homo sapiens) (Q9BWU1 whole entry): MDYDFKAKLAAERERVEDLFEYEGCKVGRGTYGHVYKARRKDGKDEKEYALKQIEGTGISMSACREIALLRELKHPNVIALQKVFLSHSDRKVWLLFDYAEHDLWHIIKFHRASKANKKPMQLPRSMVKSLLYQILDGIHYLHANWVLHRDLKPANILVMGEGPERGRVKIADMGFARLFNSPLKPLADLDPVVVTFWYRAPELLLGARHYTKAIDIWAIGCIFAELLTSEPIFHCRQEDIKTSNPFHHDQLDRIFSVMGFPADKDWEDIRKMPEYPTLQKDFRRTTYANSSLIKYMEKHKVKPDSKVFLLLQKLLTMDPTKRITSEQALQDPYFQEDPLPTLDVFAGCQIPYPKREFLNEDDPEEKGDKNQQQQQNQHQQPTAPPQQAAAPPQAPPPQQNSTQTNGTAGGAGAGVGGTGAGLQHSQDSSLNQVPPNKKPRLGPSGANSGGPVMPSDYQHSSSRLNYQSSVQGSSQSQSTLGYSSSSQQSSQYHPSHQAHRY

[14] = target: T1, CDK8/Cyclin C (Homo sapiens); experiment: Hydrophobic-tagging degradation activity at CDK8/Cyclin C in human MDA-MB-468 cells assessed as protein degradation at 3 uM incubated for 24 hrs in presence of 17-AAG by Western blotting analysis; format: cell-based
[15] = target: T1, CDK8/Cyclin C (Homo sapiens); experiment: Hydrophobic-tagging degradation activity at CDK8/Cyclin C in human MDA-MB-468 cells assessed as effect on mRNA expression level at 1.1 to 10 uM by […] analysis; format: cell-based; settings: dose 1.1-10 µM
[16] = target: T1, CDK8/Cyclin C (Homo sapiens); experiment: Hydrophobic-tagging degradation activity at CDK8/Cyclin C in human MDA-MB-468 cells assessed as protein degradation at 5 uM incubated for 2 to 72 hrs by Western blotting analysis; format: cell-based; settings: time 2-72 hrs, TDE = time-dependent effect
[17] = system: MDA-MB-468; experiment: Antiproliferative activity against human MDA-MB-468 cells assessed as reduction in cell viability incubated for 4 days by Celltiter glo luminescent assay; format: functional, cell-based; settings: time 4.0 day
[18] = system: MDA-MB-231; experiment: Antiproliferative activity against human MDA-MB-231 cells assessed as reduction in cell viability incubated for 4 days by Celltiter glo luminescent assay; format: functional, cell-based; settings: time 4.0 day
[19] = system: MDA-MB-468; experiment: Inhibition of colony formation in human MDA-MB-468 cells assessed as reduction in cell colony number at 1.25 to 20 uM incubated for 3 days by crystal violet staining based assay; format: functional; settings: dose 1.25-20 µM, time 3.0 day
[20] = target: T1, CDK8/Cyclin C (Homo sapiens); experiment: Hydrophobic-tagging degradation activity at CDK8/Cyclin C in human MDA-MB-468 cells assessed as downregulation of Rb phosphorylation at 2 to 8 uM incubated for 24 hrs by Western blotting analysis; format: cell-based; settings: dose 2-8 µM
[21] = target: T1, CDK8/Cyclin C (Homo sapiens); experiment: Hydrophobic-tagging degradation activity at CDK8/Cyclin C in human MDA-MB-468 cells assessed as downregulation of STAT1 phosphorylation at Ser727 residue at 2 to 8 uM incubated for 24 hrs by Western blotting analysis; format: cell-based; settings: dose 2-8 µM
[22] = target: T1, CDK8/Cyclin C (Homo sapiens); experiment: Hydrophobic-tagging degradation activity at CDK8/Cyclin C in human MDA-MB-468 cells assessed as downregulation of STAT1 phosphorylation at Ser727 residue at 4 uM incubated for 24 hrs by Western blotting analysis; format: cell-based
[23] = target: T1, CDK8/Cyclin C (Homo sapiens); experiment: Hydrophobic-tagging degradation activity at CDK8/Cyclin C in human MDA-MB-468 cells assessed as downregulation of STAT1 phosphorylation at Ser727 residue at 4 uM incubated for 24 hrs followed by compound washout and measured after 24 hrs by Western blotting analysis; format: cell-based
[24] = target: T1, CDK8/Cyclin C (Homo sapiens); experiment: Hydrophobic-tagging degradation activity at CDK8/Cyclin C in human MDA-MB-468 cells assessed as effect on mRNA expression level at 4 uM incubated for 24 hrs by […] analysis; format: cell-based
[25] = target: T1, CDK8/Cyclin C (Homo sapiens); experiment: Hydrophobic-tagging degradation activity at CDK8/Cyclin C in human MDA-MB-468 cells assessed as downregulation of MYC gene expression level at 4 uM incubated for 24 hrs by qPT-PCR analysis; format: cell-based
[26] = target: T1, CDK8/Cyclin C (Homo sapiens); experiment: Hydrophobic-tagging degradation activity at CDK8/Cyclin C in human MDA-MB-468 cells assessed as downregulation of RET gene expression level at 4 uM incubated for 24 hrs by qPT-PCR analysis; format: cell-based
[27] = target: Cyclin-dependent kinase 8 (Homo sapiens, UniProt P49336); experiment: Hydrophobic-tagging degradation activity at CDK8 in human MDA-MB-468 cells assessed as downregulation of EAPP protein expression at 5 uM incubated for 12 hrs by DIA-based proteomic analysis; format: cell-based
Sequence of Cyclin-dependent kinase 8 (P49336 whole entry): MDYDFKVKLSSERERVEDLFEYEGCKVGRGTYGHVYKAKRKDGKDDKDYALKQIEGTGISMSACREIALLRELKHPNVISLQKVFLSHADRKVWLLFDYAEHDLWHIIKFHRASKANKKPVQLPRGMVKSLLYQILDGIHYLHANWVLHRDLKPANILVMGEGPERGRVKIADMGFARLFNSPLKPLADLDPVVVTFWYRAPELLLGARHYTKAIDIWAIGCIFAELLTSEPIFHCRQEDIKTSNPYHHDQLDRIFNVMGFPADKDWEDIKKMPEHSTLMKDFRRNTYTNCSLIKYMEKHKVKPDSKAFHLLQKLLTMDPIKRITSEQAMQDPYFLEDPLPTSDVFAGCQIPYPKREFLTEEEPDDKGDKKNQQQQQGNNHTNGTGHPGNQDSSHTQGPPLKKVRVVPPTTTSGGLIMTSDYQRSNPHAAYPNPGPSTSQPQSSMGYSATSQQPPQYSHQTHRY

[28] = system: HCT-116; experiment: Antiproliferative activity against human HCT-116 cells assessed as inhibition of cell proliferation incubated for 4 days by Celltiter glo luminescent assay; format: functional, cell-based; settings: HCT-116, 96 h

Activity [1]: Active | Activity [2]: Active | Activity [3]: Active | Activity [4]: inactive | Activity [5]: inactive | Activity [6]: inactive | Activity [7]: Active | Activity [8]: inactive | Activity [9]: inactive | Activity [10]: inactive | Activity [11]: inactive | Activity [12]: Active | Activity [13]: inactive | Activity [14]: Active | Activity [15]: inactive | Activity [16]: Tde | Activity [20]: Active | Activity [21]: Active | Activity [22]: Active | inhibition [23]: 70% | Activity [24]: inactive | Activity [25]: Active | Activity [26]: Active | Activity [27]: Active | IC50 [28]: 5.87 µM
SMILES: O=C(Cn1cc(-c2ccc(-c3cncc4ccccc34)cc2)cn1)N1CCN(CCCC23CC4CC(CC(C4)C2)C3)CC1
Activity [17]: Active | Activity [18]: Active | inhibition [19]: Active
